# Key:
# Coagulation factor XIa = Coagulation factor XIa (Homo sapiens (Human), UniProt P03951); experiment: Factor XIa Assay; format: biochemical; conditions: human factor XIa 0.04 nM, substrate GPR-AFC, 30 min pre-incubation at 25° C., pH 7.4; read-out: FXIa IC50
# Experimental: (§1) The effectiveness of a compound of the present invention as an inhibitor of Coagulation factor XIa can be determined using a relevant purified serine protease, and an appropriate synthetic substrate. The rate of hydrolysis of the chromogenic or fluorogenic substrate by the relevant serine protease was measured both in the absence and presence of compounds of the present invention. Assays were conducted at rt or at 37° C. […] A decrease in the rate of fluorescence change in the presence of inhibitor is indicative of enzyme inhibition. Such methods are known to one skilled in the art. The results of this assay are expressed as the half-maximal inhibitory concentrations (IC50), or the inhibitory constant, Ki.
# Compounds were pre-incubated for 30 min at 25° C. with human (0.04 nM) factor XIa in 50 mM HEPES buffer with 150 mM sodium chloride, 5 mM calcium chloride, 0.1% PEG 8000, pH 7.4. factor XIa enzymatic activity was determined by addition of the substrate glycine-proline-arginine-7-amido-4-trifluoromethylcoumarin (GPR-AFC) and measurement of the fluorescence at 400/505 nm after a 60 min incubation at 25° C. The % inhibition for each data point was calculated from the data and analyzed using the log (inhibitor) vs. response four parameters equation to determine the half-maximal inhibitory concentrations (IC50). The IC50 were converted to equilibrium inhibitory constants (Ki) using the Cheng-Prusoff equation.
# Human plasma kallikrein = Human plasma kallikrein (Homo sapiens (Human), UniProt P03952); experiment: Plasma Kallikrein Assay; format: biochemical; conditions: purified Human plasma kallikrein 0.5 nM, substrate Acetyl-K-P-R-AFC, pH 7.4; read-out: PKal IC50
# Sequence of Human plasma kallikrein (P03952 391-638 limits assumed): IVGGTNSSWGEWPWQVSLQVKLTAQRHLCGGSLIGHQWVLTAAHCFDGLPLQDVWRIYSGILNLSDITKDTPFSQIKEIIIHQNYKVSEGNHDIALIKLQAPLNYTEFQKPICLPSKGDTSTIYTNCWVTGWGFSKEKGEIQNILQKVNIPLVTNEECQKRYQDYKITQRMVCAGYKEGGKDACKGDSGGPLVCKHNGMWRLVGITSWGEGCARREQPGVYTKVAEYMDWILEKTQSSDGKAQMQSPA
# Sequence of Human plasma kallikrein (P03952 20-390 partner limits assumed): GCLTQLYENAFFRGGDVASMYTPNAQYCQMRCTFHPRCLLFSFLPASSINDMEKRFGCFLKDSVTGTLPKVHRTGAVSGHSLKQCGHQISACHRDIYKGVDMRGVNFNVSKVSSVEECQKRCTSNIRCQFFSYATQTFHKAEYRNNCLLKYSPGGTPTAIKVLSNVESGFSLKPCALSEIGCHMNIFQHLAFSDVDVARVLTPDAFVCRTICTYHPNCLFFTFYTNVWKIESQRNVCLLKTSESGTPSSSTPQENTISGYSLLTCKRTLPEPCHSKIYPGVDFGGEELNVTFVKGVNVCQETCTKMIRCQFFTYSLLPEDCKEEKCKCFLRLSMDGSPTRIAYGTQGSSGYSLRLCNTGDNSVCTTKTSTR
# Experimental: as §1, with “plasma kallikrein” for “Coagulation factor XIa”
# Plasma kallikrein determinations were made in 50 mM HEPES buffer at pH 7.4 containing 150 mM NaCl, 5 mM CaCl2, and 0.1% PEG 8000 (polyethylene glycol; Fisher Scientific). Determinations were made using purified Human plasma kallikrein at a final concentration of 0.5 nM (Enzyme Research Laboratories) and the synthetic substrate, Acetyl-K-P-R-AFC (Sigma #C6608) at a concentration of […].
# Activity assays were performed by diluting a stock solution of substrate at least tenfold to a final concentration ≤0.2 Km into a solution containing enzyme or enzyme equilibrated with inhibitor. Times required to achieve equilibration between enzyme and inhibitor were determined in control experiments. The reactions were performed under linear progress curve conditions and fluorescence increase measured at 405 Ex/510 Em nm. Values were converted to percent inhibition of the control reaction (after subtracting 100% Inhibition value). IC50 was determined by inflection point from a four parameter logistic curve fit. Ki was calculated using the Cheng Prusoff equation, Ki=IC50/(1+[S]/Km)).
# Sequence of Coagulation factor XIa (P03951 388-625 limits assumed): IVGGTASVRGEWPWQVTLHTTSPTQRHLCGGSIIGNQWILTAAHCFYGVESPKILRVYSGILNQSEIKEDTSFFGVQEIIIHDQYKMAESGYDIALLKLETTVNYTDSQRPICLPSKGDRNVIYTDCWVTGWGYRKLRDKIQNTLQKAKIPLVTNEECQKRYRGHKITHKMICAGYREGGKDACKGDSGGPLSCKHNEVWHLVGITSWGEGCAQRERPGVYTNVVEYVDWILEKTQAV
# Sequence of Coagulation factor XIa (P03951 19-387 partner limits assumed): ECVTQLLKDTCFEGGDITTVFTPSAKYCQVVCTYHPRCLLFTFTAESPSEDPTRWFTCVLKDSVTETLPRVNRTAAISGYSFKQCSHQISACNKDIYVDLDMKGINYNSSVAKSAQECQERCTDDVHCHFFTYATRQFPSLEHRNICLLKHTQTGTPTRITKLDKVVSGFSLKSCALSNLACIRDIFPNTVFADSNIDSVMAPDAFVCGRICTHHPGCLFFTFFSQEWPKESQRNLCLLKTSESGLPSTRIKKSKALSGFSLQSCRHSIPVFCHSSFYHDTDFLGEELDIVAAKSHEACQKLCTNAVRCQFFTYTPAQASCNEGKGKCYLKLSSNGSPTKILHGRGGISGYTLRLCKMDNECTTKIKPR
SMILES,IC50 (Coagulation factor XIa) [µM],IC50 (Human plasma kallikrein) [µM]
"O=C1Nc2ccc(Cl)c(F)c2[C@]2(CCN(c3cncc(C(=O)NCc4ccc(N5CC[C@H](F)C5)nc4)n3)C2)O1 [Example 38, (S)-6-(6-Chloro-5-fluoro-2-oxo-1,2-dihydrospiro[benzo[d][1,3]oxazine-4,3′-pyrrolidin]-1′-yl)-N-((6-((S)-3-fluoropyrrolidin-1-yl)pyridin-3-yl)methyl)pyrazine-2-carboxamide]",10,0.0358
"O=C1Nc2ccc(Cl)c(F)c2[C@]2(CCN(c3cncc(C(=O)NCc4ccc5c(n4)NCCC5)n3)C2)O1 [Example 31, (S)-6-(6-Chloro-5-fluoro-2-oxo-1,2-dihydrospiro[benzo[d][1,3]oxazine-4,3′-pyrrolidin]-1′-yl)-N-((5,6,7,8-tetrahydro-1,8-naphthyridin-2-yl)methyl)pyrazine-2-carboxamide]",10,0.0086
"C[C@H]1CCN(c2ccc(CNC(=O)c3cncc(N4CC[C@]5(C4)OC(=O)Nc4ccc(Cl)c(F)c45)c3)cn2)C1 [Example 3, (S)-5-(6-Chloro-5-fluoro-2-oxo-1,2-dihydrospiro[benzo[d][1,3]oxazine-4,3′-pyrrolidin]-1′-yl)-N-((6-((S)-3-methylpyrrolidin-1-yl)pyridin-3-yl)methyl)nicotinamide]",10,0.0095
"Cc1cnn(Cc2ccc(CNC(=O)c3cncc(N4CC[C@]5(C4)OC(=O)Nc4ccc(Cl)c(F)c45)c3)cn2)c1 [Example 20, (S)-5-(6-Chloro-5-fluoro-2-oxo-1,2-dihydrospiro[benzo[d][1,3]oxazine-4,3′-pyrrolidin]-1′-yl)-N-((6-((4-methyl-1H-pyrazol-1-yl)methyl)pyridin-3-yl)methyl)nicotinamide]",10,0.0013
"CN1CCCC1c1ccc(CNC(=O)c2cnnc(N3CC[C@]4(C3)OC(=O)Nc3ccc(Cl)c(F)c34)c2)cc1 (stereo in doubt) [Example 10, (S)-6-(6-Chloro-5-fluoro-2-oxo-1,2-dihydrospiro[benzo[d][1,3]oxazine-4,3′-pyrrolidin]-1′-yl)-N-(4-(1-methylpyrrolidin-2-yl)benzyl)pyridazine-4-carboxamide]",10,0.0025
"O=C1Nc2ccc(Cl)c(F)c2[C@]2(CCN(c3cncc(C(=O)NCc4ccc(N5CC(F)C5)nc4)n3)C2)O1 [Example 33, (S)-6-(6-Chloro-5-fluoro-2-oxo-1,2-dihydrospiro[benzo[d][1,3]oxazine-4,3′-pyrrolidin]-1′-yl)-N-((6-(3-fluoroazetidin-1-yl)pyridin-3-yl)methyl)pyrazine-2-carboxamide]",10,0.0254
"Cc1cnn(Cc2ccc(CNC(=O)c3cc(N4CC[C@]5(C4)OC(=O)Nc4ccc(Cl)c(F)c45)ccn3)cc2)c1 [Example 25, (S)-4-(6-Chloro-5-fluoro-2-oxo-1,2-dihydrospiro[benzo[d][1,3]oxazine-4,3′-pyrrolidin]-1′-yl)-N-(4-((4-methyl-1H-pyrazol-1-yl)methyl)benzyl)picolinamide]",10,0.0165
"O=C1Nc2ccc(Cl)c(F)c2[C@]2(CCN(c3cncc(C(=O)NCc4ccc(N5CCCC5)nc4)n3)C2)O1 [Example 2, (S)-6-(6-Chloro-5-fluoro-2-oxo-1,2-dihydrospiro[benzo[d][1,3]oxazine-4,3′-pyrrolidin]-1′-yl)-N-((6-(pyrrolidin-1-yl)pyridin-3-yl)methyl)pyrazine-2-carboxamide]",10,0.0068
"O=C1Nc2ccc(Cl)c(F)c2[C@]2(CCN(c3cncc(C(=O)NCc4ccc(Cn5ccccc5=O)nc4)c3)C2)O1 [Example 15, (S)-5-(6-Chloro-5-fluoro-2-oxo-1,2-dihydrospiro[benzo[d][1,3]oxazine-4,3′-pyrrolidin]-1′-yl)-N-((6-((2-oxopyridin-1(2H)-yl)methyl)pyridin-3-yl)methyl)nicotinamide]",10,0.0006

# From patent US20240190892A1, “PLASMA KALLIKREIN INHIBITORS” (Merck Sharp & Dohme LLC, priority 2021, published 2024)
